Results taken from US20020192171A1, “Method for preventing malodor” (priority 2001, published 2002).

Assays:
underarm odor = test: Deodorant value test (modified), odor assessment on axillae of human subjects; assay type: in vivo; settings: general statement in description
Protocol: A typical test for deodorant effect of the present invention was carried out as follows. The test solution was the composition containing 0.4% monensin. The positive control was 8.2% aluminum chlorhydrate, a level that is used in most deodorant or antiperspirant products on the market and 0.4% chlorhesidine digluconate, a level that is usually used for bacterial killing. The negative control was a vehicle consisting of 60% ethanol and 40% water. Three experienced underarm odor assessors who are able to rank correctly the odor intensities based on the deodorant value test system (U.S. Pat. No. 4,278,658) performed odor assessments. Deodorant assessment scores were recorded according to the malodor category scale, when applied directly to the axillae skin of a panel of human subjects. [table] The described in deodorant value test system has been modified by measuring odor intensity every 24 hours after treatment until odor intensity is detectable (average score 1 or up) on a 0-5 score instead of just 24 hours after In example 2, fifteen subjects selected by experienced odor assessors have average odor score 3.5 (range from score 3-5). […] At 24 hour intervals, each subject was evaluated for underarm odor by averaging the score of the three assessors until odor in test groups was detectable (score 1 or up).

skin = settings: human, in vivo

For `CC[C@@]1([C@@H]2O[C@@H]([C@H]3O[C@@](O)(CO)[C@H](C)C[C@@H]3C)C[C@@H]2C)CC[C@H]([C@]2(C)CC[C@]3(C[C@H](O)[C@@H](C)[C@@H]([C@@H](C)[C@@H](OC)[C@H](C)C(=O)O)O3)O2)O1` [monensin, Monensin], the “duration of deodorant effect in preventing malodor” value (underarm odor) was “deodorant effect with a longer period than expected” and the skin irritation (skin) was “did not cause any irritation”.
